Data set [1] deals with long term reconstituting cells (HSPC). In words: Competitive transplantation of mobilized peripheral blood into lethally irradiated congenic recipients (incl. serial transplant). The note with it: for potency of mobilization with AMD3100 compared with AMD3100 alone: AMD3100 5 mg/kg plus heparin 100 U/mouse or protamine sulfate 40 mg/kg, relative frequency of engrafted donor cells, AMD3100 alone = 1; for stem cell mobilization by the agent alone: Example 3, data not shown; for mobilization of long term reconstituting cells (PB competitive transplantation, primary recipients): wild type mice, single dose heparin 100 U/mouse added to G-CSF regimen. It counts as in vivo, mice. The protocol:
Blood from animals treated with single dose AMD3100 alone (5 mg/kg) or AMD3100 plus heparin (100 U/mouse) or protamine sulfate (40 mg/kg) was used in transplantation of lethally irradiated congenic hosts and the relative frequency of engrafted donor cells is indicated. Line at 1=AMD3100 alone. Results are from 6-10 animals/group.
Hypothesizing that endogenous HSPG could be competed with by known pharmacologic HSPG, we examined whether heparin sulfate could mimic the EXT1 deletion effect on stem cell localization. Initially, this was done using a single dose of heparin sulfate (100 U/mouse) after a standard G-CSF mobilization regimen, harvesting the peripheral blood and using it to reconstitute lethally irradiated congenic recipients (FIG. 3). The primary recipients were then harvested after 4 months and used to transplant secondary lethally irradiated recipients.
For non-competitive BM transplantation, to create the chimeras described in FIG. 1a, one million whole BM cells from B6.SJL (CD45.1) mice were transplanted into lethally irradiated (9.5 Gy from a Cesium source 4-24 hours before transplantation) Ext1-loxP/loxP-Mx1cre (CD45.2) recipients six-to-eight weeks before pIpC administration. Neutrophil and platelet recovery assay was performed as previously described (Hoggatt et al., 2013). Briefly, 3 million mobilized PB mononuclear cells (MNC) from C57BL/6J (CD45.2) mice were transplanted into lethally irradiated B6.SJL (CD45.1) mice and followed up for at least 36 days. For transplantation without cytotoxic conditioning, 1, 4 or 8 million whole BM cells from B6.SJL mice were transplanted into Ext1-loxP/loxP-Mx1cre recipients three weeks after pIpC administration. For competitive transplantation of mobilized peripheral blood (PB), 150 ul of PB (CD45.2) was mixed with 2×10^5 congenic BM support cells and injected into lethally irradiated CD45.1 recipients. Cells were infused via lateral tail vein injection. Engraftment was monitored at 4-week intervals by FACS analysis.
(§1) Recombinant human G-CSF (Neupogen, Filgrastrim) was administered at 125 ug/kg of TBW every 12 hours for eight consecutive injections. Heparin Sodium (APP Pharmaceuticals) was injected i.p. at a single dose of 100 U. Hirudin was used at 40 mg/kg of TBW in a single dose. Vcam1 neutralizing antibody and the corresponding isotype control (Rat IgG2a, k) were injected intravenously at 2 mg/kg of TBW every day for three doses and PB samples were obtained through retro-orbital bleeding the day following the last injection. AMD3100 was administered subcutaneously at a single dose of 5 mg/kg TBW. PB samples were obtained through retro-orbital bleeding 3 hours after the last injection of G-CSF and 1 hour after Heparin, AMD3100, or Hirudin injection.

The test system of data set [2] is CD34+ cells. As to conditions: cited from earlier work.
For data set [3], the system named is HSPC. As to conditions: cited from earlier work.
Data set [4] has as its system HSPC. The data set is described as follows: HSPC mobilization in mice (background statements, GRO-β and heparin). In kind it is in vivo. As to conditions: unlike G-CSF; data not shown. The procedure: It does so acutely, mobilizing HSPC maximally by 15 minutes post infusion in mice. […] It is an excellent candidate to serve as a niche-vacating agent. We have also recently identified a novel involvement of heparan sulfate proteoglycans […] in HSC retention in the bone marrow that can be manipulated pharmacologically to induce stem cell mobilization of cells functionally distinctive from those mobilized by G-CSF. This process is one that involves the use of heparin and AMD3100 and achieves robust mobilization using approved agents that can quickly move to clinical trial.

Data set [5] deals with circulating hematopoietic stem/progenitor cells (HSPC). In words: Peripheral blood colony forming unit (CFU-C) assay of circulating progenitors after mobilization. In kind it is in vivo, mice. The procedure: as §1
CFU assays were performed as previously described (Ferraro et al., 2011). Equal volumes of PB (50 to 200 juL depending upon the experiment) were subjected to red blood cell lysis with ammonium-chloride-potassium buffer, resuspended in 4 ml of methocult M3434 (Stem Cell Technologies), plated in 35 mm culture dishes (1 mL/dish) and cultured at 37° C. for 8 days before scoring for colony formation.

For data set [6], the system named is Vcam1. In words: Vcam1 protein level in CD45−Ter119−Mx1+ mesenchymal cells (flow cytometry). It counts as in vivo, mice. As to conditions: heparin one hour before PB harvest vs vehicle. The procedure: Immunophenotypic characterization of the hematopoietic and mesenchymal compartments was performed as previously described (Gurumurthy et al., 2010). For details see supplementary information. Vcam1 and Cxcl12 protein levels were evaluated with an anti-Vcam1-APC and an anti-Cxcl12-APC antibody respectively and the corresponding isotype controls (R&D Systems). All data collection was performed on an LSRII or FACS Aria II (Beckon Dickinson) and data analysis was performed with FlowJo (Treestar).
as §1

Data set [7] can be described thus: Peripheral WBC count (complete blood count) after mobilization. It counts as in vivo. The note with it: C57BL/6J mice; heparin alone 100 U/mouse one hour before PB harvest, vs vehicle. The procedure:
as §1
Blood counts were performed with the automatic Vetscan HM2 (Abaxis).

Data set [8] relates to HSPCs. In words: Type I diabetes-induced mobilopathy model, G-CSF mobilization with PB competitive transplantation. In kind it is in vivo, mice. The note with it: G-CSF alone. The source says: Hematopoietic stem cell transplantation remains the gold standard curative therapy for a number of hematological disorders. However, G-CSF mobilization resistance may compromise lifesaving therapy for some individuals. We therefore evaluated whether genetic or pharmacological competitive inhibition of HSPG may facilitate G-CSF-induced HSPC egress from the BM in a murine model of Type I diabetes-induced mobilopathy (Ferraro et al., 2011). […] However, the compromised response to G-CSF was fully corrected in Type I diabetic mice lacking Ext1 expression in Mx1+ mesenchymal cells (FIG. 9K).
For non-competitive BM transplantation, to create the chimeras described in FIG. 1a, one million whole BM cells from B6.SJL (CD45.1) mice were transplanted into lethally irradiated (9.5 Gy from a Cesium source 4-24 hours before transplantation) Ext1-loxP/loxP-Mx1cre (CD45.2) recipients six-to-eight weeks before pIpC administration. Neutrophil and platelet recovery assay was performed as previously described (Hoggatt et al., 2013). Briefly, 3 million mobilized PB mononuclear cells (MNC) from C57BL/6J (CD45.2) mice were transplanted into lethally irradiated B6.SJL (CD45.1) mice and followed up for at least 36 days. […] Engraftment was monitored at 4-week intervals by FACS analysis. […]

Here are results for six molecules from patent publication US11116819B2, “Methods and compositions for mobilizing stem cells” (President and Fellows of Harvard College, priority 2013, dated 2021).

“Also recorded” adds a separate entry of the source.

`c1cc(CN2CCCNCCNCCCNCC2)ccc1CN1CCCNCCNCCCNCC1` [AMD3100]: in data set [1] (AMD3100 in combination with G-CSF vs G-CSF alone), the “G-CSF-induced mobilization in Ext1 deficient mice (relative PB reconstitution)” value is given as “augments G-CSF-induced mobilization”. Moreover, the “patients reporting diarrhea or injection site reaction” value in data set [2] (after Plerixafor administration) was “approximately 33%”.
Turning to “GRO-β: CXCR2 agonist chemokine capable of rapidly mobilizing HSPCs”, the “time of maximal HSPC mobilization post infusion” value in data set [3] (mice) was 15 min. Besides, the “engraftment potential of mobilized long term repopulating HSCs compared with G-CSF” value in data set [3] (mouse, in vivo) was “superior engraftment potential”. In addition, the “changes in marrow morphology by immunohistochemistry” value in data set [4] is on record as “not associated with changes in marrow morphology”.
For the molecule heparin, the “potency of mobilization with AMD3100 compared with AMD3100 alone” value in data set [1] is given as “enhance potency of mobilization compared with AMD3100 alone”. The “stem cell mobilization by the agent alone” value in data set [1] is “Neither were sufficiently effective alone”. Moreover, the “secondary engraftment / self-renewal of mobilized cells (serial transplantation)” value in data set [1] (heparin 100 U/mouse added to G-CSF regimen, vs G-CSF alone, secondary lethally irradiated recipients) is on record as “distinctly more capable at providing secondary engraftment”. For the same molecule, the “HSPC mobilization in Ext1 mutant (EXT1 KO) mice” value in data set [1] (heparin added to G-CSF vs G-CSF alone, Ext1 mutant mice) is recorded as “loss of its effect”. In addition, the “mobilization of long term reconstituting cells (PB competitive transplantation, primary recipients)” value in data set [1] (vs G-CSF alone) is recorded as “significantly enhances G-CSF induced mobilization”; in data set [1] (vs G-CSF alone, listed as heparin sulfate) it was “additive mobilization of stem cells”. The “ability to induce mobilization on its own” value in data set [3] (Frenette and Weiss, 2000) is “lack the ability to induce mobilization on its own”. Moreover, in data set [5] (C57BL/6J mice, heparin alone 100 U/mouse one hour before PB harvest, vs vehicle (PBS)), the “number of circulating HSPCs as measured by CFU assays” value was “modest, yet significant increase; also recorded: enhanced HSPC mobilization compared to vehicle”. In addition, in data set [5] (heparin plus AMD3100 vs AMD3100 alone), the “AMD3100-induced mobilization (CFU) with co-administration of heparin” value is “enhances AMD3100-induced mobilization”. Moreover, the “Vcam1 levels in Mx1+ mesenchymal cells” value in data set [6] was “does not modulate Vcam1 levels”. For the same molecule, the WBC counts entry in data set [7] is given as “without a significant change”.
For the molecule hirudin, the “effect on G-CSF-induced HSPC mobilization (relative PB reconstitution 16 weeks post transplantation)” value in data set [1] (hirudin 40 mg/kg single dose with G-CSF, C57BL/6J mice) was “did not impact G-CSF-induced HSPC mobilization”.
For the molecule protamine sulfate, in data set [1], the “potency of mobilization with AMD3100 compared with AMD3100 alone” value is on record as “enhance potency of mobilization compared with AMD3100 alone” and the “stem cell mobilization by the agent alone” value is “Neither were sufficiently effective alone”.

B1: G-CSF: Recombinant human G-CSF, hematopoietic growth factor used clinically to mobilize HSC and HPC (protein, UniProt P09919 31-207, looked up)
Granulocyte …: TPLGPASSLPQSFLLKCLEQVRKIQGDGAALQEKLVSECATYKLCHPEELVLLGHSLGIPWAPLSSCPSQALQLAGCLSQLHSGLFLYQGLLQALEGISPELGPTLDTLQLDVADFATTIWQQMEELGMAPALQPTQGAMPAFASAFQRRAGGVLVASHLQSFLEVSYRVLRHLAQP
modifications: filgrastim
notes: Recombinant human G-CSF, hematopoietic growth factor used clinically to mobilize HSC and HPC
Take B1: the “HSPC mobilization in Type I diabetic mice” value in data set [8] is “failed to efficiently mobilize HSPCs”. Also, in data set [2] (normal, healthy donors), the “poor mobilization in response to G-CSF, share of normal, healthy donors” value is 15%. Moreover, the “patients failing to mobilize an optimal CD34+ cell number for autologous transplantation” value in data set [2] (patients, G-CSF mobilization) was “Up to 60%”.
